# According to patent US20110092547A1 (priority 2007, published 2011):
# Biological target: T1, human DGAT1 (Homo sapiens, UniProt O75907)
# T1 construct: made in house; host or cells: Sf9 insect cells (recombinant baculovirus); membrane fraction
# T1 sequence (O75907 1-488): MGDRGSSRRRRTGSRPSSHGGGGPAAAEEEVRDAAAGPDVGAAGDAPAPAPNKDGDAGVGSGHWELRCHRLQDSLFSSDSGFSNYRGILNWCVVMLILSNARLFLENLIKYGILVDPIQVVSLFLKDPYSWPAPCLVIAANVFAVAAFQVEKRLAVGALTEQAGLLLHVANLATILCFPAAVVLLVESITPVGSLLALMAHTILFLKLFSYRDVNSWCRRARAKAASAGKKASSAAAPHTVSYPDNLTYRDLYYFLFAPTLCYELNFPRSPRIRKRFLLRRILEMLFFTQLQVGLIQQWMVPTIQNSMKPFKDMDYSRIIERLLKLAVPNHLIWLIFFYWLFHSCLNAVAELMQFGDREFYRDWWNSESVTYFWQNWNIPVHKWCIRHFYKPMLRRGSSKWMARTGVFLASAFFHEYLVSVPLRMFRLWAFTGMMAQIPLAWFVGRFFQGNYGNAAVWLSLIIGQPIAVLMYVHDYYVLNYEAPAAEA
# Experiment: Human enzyme assay, further developed assay (14C oleoyl CoA, 96 well plate)
# Format: biochemical
# Settings: human DGAT1 expressed in insect cell (sf9) membranes
# Protocol: The in vitro assay to identify DGAT1 inhibitors uses human DGAT1 expressed in insect cell membranes as the enzyme source (Proc. Natl. Acad. Sci. 1998, 95, 13018-13023). Briefly, sf9 cells were infected with recombinant baculovirus containing human DGAT1 coding sequences and harvested after 48 h. Cells were lysed by sonication and membranes isolated by centrifuging at 28000 rpm for 1 h at 4° C. on a 41% sucrose gradient. The membrane fraction at the interphase was collected, washed, and stored in liquid nitrogen.
# In a further developed assay, DGAT1 activity was assayed by a modification of the method described by Coleman (Methods in Enzymology 1992, 209, 98-102). Compound at 0.00003-10 μM (final cone) was incubated with 25 μg/ml (final cone) membrane protein, 5 mM MgCl2, and 100 μM 1,2 dioleoyl-sn-glycerol in a total assay volume of 200 μl in a 96 well plate. The reaction was started by adding ^14C oleoyl coenzyme A (30 μM final concentration) and incubated at room temperature for 30 minutes. The reaction was stopped by adding 300 μl 2-propanol:heptane 7:1. Radioactive triolein product was separated into the organic phase by adding 200 μl heptane and 200 μl 0.1 M carbonate buffer pH 9.5. DGAT1 activity was quantified by counting aliquots of the upper heptane layer by liquid scintillography.
row,SMILES,IC50
1,"O=C(Nc1cnc(O[C@H]2CC[C@@H](C(=O)O)CC2)c(Cl)c1)c1nnc(Nc2ccc(F)c(F)c2)o1 [Example 47, (1s,4s)-4-(3-Chloro-5-(5-(3,4-difluorophenylamino)-1,3,4-oxadiazole-2-carboxamido)pyridin-2-yloxy)cyclohexanecarboxylic acid]",22 nM
2,"COc1cc(NC(=O)c2nnc(Nc3ccc(F)c(Cl)c3)o2)cnc1O[C@H]1CC[C@@H](C(=O)O)CC1 [Example 56, (1s,4s)-4-(5-(5-(3-Chloro-4-fluorophenylamino)-1,3,4-oxadiazole-2-carboxamido)-3-methoxypyridin-2-yloxy)cyclohexanecarboxylic acid]",150 nM
3,"Cc1ccc(Nc2nnc(C(=O)Nc3ccc(O[C@H]4CC[C@H](C(=O)O)CC4)nc3)o2)cc1Cl [Example 26, (1r,4r)-4-(5-(5-(3-chloro-4-methyl-phenylamino)-1,3,4-oxadiazole-2-carboxamido)pyridin-2-yloxy)cyclo-hexane-carboxylic acid]",13 nM
4,"COc1cc(NC(=O)c2nnc(Nc3ccc(F)c(F)c3)o2)cnc1O[C@H]1CC[C@@H](C(=O)O)CC1 [Example 57, (1s,4s)-4-(5-(5-(3,4-Difluorophenylamino)-1,3,4-oxadiazole-2-carboxamido)-3-methoxypyridin-2-yloxy)cyclohexanecarboxylic acid]",410 nM
5,"O=C(Nc1ccc(OC2CCC(C(=O)O)CC2)nc1)c1nnc(Nc2ccc(OC(F)F)cc2)o1 (centres unmarked) [Example 21, 4-[(5-{[(5-{[4-(difluoromethoxy)phenyl]amino}-1,3,4-oxadiazol-2-yl)carbonyl]amino}pyridin-2-yl)oxy]cyclohexanecarboxylic acid]",11 nM
6,"O=C(O)C[C@H]1CC[C@@H](Oc2ccc(NC(=O)c3nnc(Nc4ccc(Cl)cc4Cl)o3)cn2)CC1 [Example 54, 2-((1s,4s)-4-(5-(5-(2,4-Dichlorophenylamino)-1,3,4-oxadiazole-2-carboxamido)pyridin-2-yloxy)cyclohexyl)acetic acid]",8.3 nM
7,"O=C(Nc1ccc(OC2CCC(C(=O)O)CC2)nc1)c1nnc(Nc2ccc(F)cc2)o1 (centres unmarked) [Example 20, 4-4-({5-[({5-[(4-fluorophenyl)amino]-1,3,4-oxadiazol-2-yl}-carbonyl)amino]pyridin-2-yl}oxy)cyclohexanecarboxylic acid]",9.8 nM
8,"Cc1cc(OC2CCC(C(=O)O)CC2)ncc1NC(=O)c1nnc(Nc2ccc(F)c(Cl)c2)o1 (centres unmarked) [Example 41, (1s,4s)-4-(5-(5-(3-Chloro-4-fluorophenylamino)-1,3,4-oxadiazole-2-carboxamido)-4-methylpyridin-2-yloxy) cyclohexanecarboxylic acid]",3.4 nM
9,"O=C(Nc1ccc(O[C@H]2C[C@H](C(=O)O)C2)nc1)c1nnc(Nc2ccc(F)c(F)c2)o1 [Example 66, trans-3-(5-(5-(3,4-difluorophenylamino)-1,3,4-oxadiazole-2-carboxamido)pyridin-2-yloxy)cyclobutanecarboxylic acid]",2.1 nM
10,"O=C(O)c1ccc(Oc2ccc(NC(=O)c3nnc(Nc4ccc(F)c(Cl)c4)o3)cn2)cc1 [Example 39, 4-(5-(5-(3-Chloro-4-fluorophenylamino)-1,3,4-oxadiazole-2-carboxamido)pyridin-2-yloxy)benzoic acid]",7.5 nM
11,"O=C(Nc1ccc(O[C@H]2CC[C@H](C(=O)O)CC2)nc1)c1nnc(Nc2ccc(F)c(F)c2)o1 [Example 32, (1r,4r)-4-(5-(5-(3,4-difluoro-phenylamino)-1,3,4-oxadiazole-2-carboxamido)pyridin-2-yloxy)cyclo-hexane-carboxylic acid]",26 nM
12,"O=C(Nc1ccc(O[C@H]2CC[C@@H](C(=O)O)CC2)nc1)c1nnc(Nc2ccc(Br)cc2Cl)o1 [Example 13, (1s,4s)-4-(5-(5-(4-bromo-2-chlorophenylamino)-1,3,4-oxadiazole-2-carboxamido)pyridin-2-yloxy)cyclohexanecarboxylic acid]",11 nM
13,"O=C(Nc1cnc(O[C@H]2CC[C@@H](C(=O)O)CC2)cc1F)c1nnc(Nc2cc(F)c(F)cc2F)o1 [Example 58, (1s,4s)-4-(4-Fluoro-5-(5-(2,4,5-trifluorophenylamino)-1,3,4-oxadiazole-2-carboxamido)pyridin-2-yloxy)cyclohexanecarboxylic acid]",6.1 nM
14,"CC(C)c1ccc(Nc2nnc(C(=O)Nc3ccc(O[C@H]4CC[C@H](C(=O)O)CC4)nc3)o2)cc1 [Example 30, (1r,4r)-4-(5-(5-(4-isopropyl-phenylamino)-1,3,4-oxadiazole-2-carboxamido)pyridin-2-yloxy)cyclo-hexane-carboxylic acid]",17 nM
15,"O=C(O)C[C@H]1CC[C@H](Oc2ccc(NC(=O)c3nnc(Nc4ccc(F)c(F)c4)o3)cn2)CC1 [Example 37, 2-((1r,4r)-4-(5-(5-(3,4-difluorophenylamino)-1,3,4-oxadiazole-2-carboxamido)pyridin-2-yloxy)cyclohexyl)acetic acid]",18 nM
16,"Cc1cc(O[C@H]2CC[C@@H](C(=O)O)CC2)ncc1NC(=O)c1nnc(Nc2ccc(F)c(F)c2)o1 [Example 40, (1s,4s)-4-(5-(5-(3,4-Difluorophenylamino)-1,3,4-oxadiazole-2-carboxamido)-4-methylpyridin-2-yloxy)cyclohexanecarboxylic acid]",3.5 nM
17,"O=C(Nc1ccc(O[C@@H]2CC[C@@H](C(=O)O)C2)nc1)c1nnc(Nc2ccc(F)c(F)c2)o1 [Example 49, (1R,3R)-3-(5-(5-(3,4-Difluorophenylamino)-1,3,4-oxadiazole-2-carboxamido)pyridin-2-yloxy)cyclopentanecarboxylic acid]",18 nM
18,"O=C(Nc1ccc(O[C@H]2CC[C@@H](C(=O)O)CC2)nc1)c1nnc(Nc2ccc(F)c(C(F)(F)F)c2)o1 [Example 8, (1s,4s)-4-(5-(5-(4-fluoro-3-(trifluoromethyl)phenylamino)-1,3,4-oxadiazole-2-carboxamido)pyridin-2-yloxy)cyclohexanecarboxylic acid]",10 nM
19,"Cc1cc(NC(=O)c2nnc(Nc3ccc(F)c(F)c3)o2)cnc1O[C@H]1CC[C@@H](C(=O)O)CC1 [Example 17, (1s,4s)-4-(5-(5-(3,4-difluorophenylamino)-1,3,4-oxadiazole-2-carboxamido)-3-methylpyridin-2-yloxy)cyclohexanecarboxylic acid]",27 nM
20,"O=C(Nc1ccc(O[C@H]2CC[C@@H](C(=O)O)CC2)nc1)c1nnc(Nc2ccc(F)c(F)c2)o1 [Example 1, cis-4-[5-[[5-[(3,4-Difluorophenyl)amino]-1,3,4-oxadiazole-2-carbonyl]amino]pyridin-2-yl]oxycyclohexane-1-carboxylic acid]",11 nM
21,"C[C@]1(C(=O)O)CC[C@@H](Oc2ccc(NC(=O)c3nnc(Nc4ccc(F)c(F)c4)o3)cn2)CC1 [Example 68, (1s,4s)-4-(5-(5-(3,4-Difluorophenylamino)-1,3,4-oxadiazole-2-carboxamido)pyridin-2-yloxy)-1-methylcyclohexanecarboxylic acid]",8.3 nM
22,"O=C(Nc1ccc(O[C@H]2CC[C@@H](C(=O)O)CC2)nc1)c1nnc(Nc2ccc(OC(F)(F)F)cc2)o1 [Example 11, (1s,4s)-4-(5-(5-(4-(trifluoromethoxy)phenylamino)-1,3,4-oxadiazole-2-carboxamido)pyridin-2-yloxy)cyclohexanecarboxylic acid]",7.2 nM
23,"O=C(Nc1ccc(O[C@H]2CC[C@H](C(=O)O)CC2)nc1)c1nnc(Nc2ccc(Cl)cc2Cl)o1 [Example 23, (1r,4r)-4-(5-(5-(2,4-dichloro-phenylamino)-1,3,4-oxadiazole-2-carboxamido)pyridin-2-yloxy)cyclo-hexane-carboxylic acid]",21 nM
24,COc1cc(O[C@H]2CC[C@@H](C(=O)O)CC2)ncc1NC(=O)c1nnc(Nc2ccc(Br)cc2Cl)o1 [Example 44],54 nM
25,"Cc1cc(NC(=O)c2nnc(Nc3cccc(Cl)c3)o2)cnc1O[C@H]1CC[C@@H](C(=O)O)CC1 [Example 18, (1s,4s)-4-(5-(5-(3-chlorophenylamino)-1,3,4-oxadiazole-2-carboxamido)-3-methylpyridin-2-yloxy)cyclohexanecarboxylic acid]",21 nM
26,"O=C(Nc1ccc(O[C@H]2CC[C@@H](C(=O)O)CC2)nc1)c1nnc(Nc2ccc(Cl)cc2Cl)o1 [Example 12, (1s,4s)-4-(5-(5-(2,4-dichlorophenylamino)-1,3,4-oxadiazole-2-carboxamido)pyridin-2-yloxy)cyclohexanecarboxylic acid]",7.4 nM
